Reference: patent publication US20210087159A1, “TETRAHYDROCANNABINOLIC- CA[…] DERIVATIVES AND USES THEREOF” (AL&AM […]., priority 2018, published 2021)

Experiments:
Type in all cases: cell-based
[1] = system: PANC-1 (pancreatic carcinoma); experiment: XTT cytotoxicity assay (Pharma Seed); details: Homo sapiens, 48 hours, 20, 10, 5, 1 μM, assay medium 1% FBS
Description: (§1) In this study, the cytotoxicity of several compounds of the present invention on lung and pancreatic cancer cell was evaluated.
PANC-1 (pancreatic carcinoma) culture medium: DMEM (High Glucose), supplemented with 10% FBS (heat inactivated), 2 mM L-glutamine, and 1% of Pen/Strep/Amp solution. PANC-1 assay medium: DMEM (High Glucose), supplemented with 1% FBS (heat inactivated), 2 mM L-glutamine, and 1% of Pen/Strep/Amp solution.
(§2) Each of the tested compounds was dissolved in DMSO to reach a stock concentration of 20 mM (and stored at −15° C.-−25° C. until use. Compound Ia28 (MW 484 g/mol, 3.05 mg total) was dissolved in 0.315 mL; compound Ia9 (MW 484 g/mol, 2.33 mg total) was dissolved in 0.241 mL; and compound Ia6 (MW 428.3 g/mol, 2.25 mg total) was dissolved in 0.262 mL.
(§3) On the day of incubation with the cells, each compound was diluted in DMSO to reach 2 mM, 1 mM, 0.5 mM, 0.1 mM stock concentrations (1:10, 1:20, 1:40 and 1:200), and each of these stocks was further diluted in assay medium 1:100 for final concentration of 20 μM, 10 μM, 5 μM, and 1 μM.
(§4) Part 1—cell number calibration. PANC-1 and A549 cells were each plated in a 96 well plate, in their culture medium, at various cell concentrations per well, in triplicates, and were allowed to attach for 24 hours. Thereafter, culture medium was discarded, assay medium was added, and the cells were incubated for additional 72 hours. Finally, assay medium was discarded, and fresh culture medium was added to the cells along with 50 μl XTT reagent. The OD was measured every two hours for 6 hours (three times).
(§5) The highest cells number/well were chosen for part 2 as follows: PANC-1 at 7,500 cells per well, A549 at 5000 cells per well.
Part 2—cells incubation with tested compounds. PANC-1 and A549 cells were plated in a 96 well plate, in their culture medium, at the optimal cell concentration according to the results from the previous section and were allowed to attach for 24 hours. Thereafter, the culture medium was discarded, and fresh assay medium was added to the cells, supplemented with elevating compound concentrations. Triton 0.1% was used as positive control for cell death. The cells were incubated for another 48 hours (TBD upon microscopic observation). Finally, fresh culture medium was added to the cells along with 50 μl XTT reagent. The OD was measured at the optimal time point according to the results in the previous section.

A549 (lung carcinoma) = experiment: XTT cytotoxicity assay (Pharma Seed); details: Homo sapiens, 48 hours, 20, 10, 5, 1 μM, assay medium 1% FBS
Description: as §1
A549 (lung carcinoma) culture medium: F12-K, supplemented with 10% FBS (heat inactivated), 2 mM L-glutamine, and 1% of Pen/Strep/Amp solution. A549 assay medium: F12-K, supplemented with 1% FBS (heat inactivated), 2 mM L-glutamine, and 1% of Pen/Strep/Amp solution.
as §2, §3, §4, §5
Part 2—cells incubation with tested compounds. PANC-1 and A549 cells were plated in a 96 well plate, in their culture medium, at the optimal cell concentration according to the results from the previous section and were allowed to attach for 24 hours. […] The OD was measured at the optimal time point according to the results in the previous section.

[2] = system: human peripheral blood mononuclear cells (PBMCs); experiment: Cell proliferation of LPS-challenged PBMCs by CellTiter-Glo (CTG); details: for CTG signal: human PBMCs, 72 h (LPS control 84.50); for effect on cell proliferation: LPS-treated human PBMCs, CTG
Source text: This study was aimed to test the effect of 12 compounds (THCA, Ia1, Ia5, Ia6, Ia9, Ia11, Ia15, Ia17, Ia24, Ia25, Ia27, and Ia28) on human peripheral blood mononuclear cells (PBMCs) challenged by lipopolysaccharide (LPS) through monitoring multiple inflammatory endpoints.
Blood samples were collected from healthy volunteers according to protocols that have been reviewed and approved by the Chempartner Institutional Ethic Committee (IEC) upon signing an Informed Consent Form (ICF).
Fresh PBMCs were isolated and seeded into 96-well plate, and diluted solutions of the tested compounds and 0.1 μg/mL LPS were then added (in triplicates). To serve as control, 3 wells with PBMCs only, 3 wells with 0.1 μg/mL LPS, and 2 wells with 1 μg/mL dexamethasone (Dex) and 0.1 μg/mL LPS were included. After 72 hours incubation, supernatant was collected for tumor necrosis factor-α (TNF-α) measurement by enzyme-linked immunosorbent assay (ELISA), and cell pellets were harvested for cell proliferation measurement by CellTiter-Glo® Luminescent Cell Viability Assay (CTG).
The human blood sample from an individual donor was diluted by the same volume of sterile phosphate buffered solution (PBS) and mixed sufficiently by gentle shake. 15 mL Lymphoprep™ medium was transferred into a new 50 mL centrifuge tube, and the diluted blood sample (30 mL) was then carefully added onto the surface of the medium, which consequently contained Ficoll 400 and blood in a volume ratio of 1:2. Four interfaces were observed after centrifugation, which are, from top to bottom, layers of plasma, mononuclear cells, Ficoll medium, and red blood cells (RBCs). Plasma was absorbed, and mononuclear cells were then transferred into another new sterile centrifuge tube. Then, sterile PBS buffer was added into the collected PBMCs for washing, at a volume ratio of 3:1. PBMCs were washed with 5-10 mL PBS twice before cell counting with cytometer. Cells were centrifuged at 350×g, for 10 min, at 20° C. with the acceleration (5) and deceleration (5) settings during the centrifugation. The cells were resuspended with RPMI 1640 complete medium (containing 10% FBS) for assay, and the density was adjusted with RPMI 1640 complete medium to the final concentration of 2E6 cells/mL. Cells suspension of the PBMCs (100 μL/well) were seeded into 96-well plate (#3903).
Diluted solutions of the tested compounds were prepared with RPMI 1640 complete medium according to the following layout. Compounds were prepared at 5-fold of concentration (50 μM), and then were diluted to the working concentration of 10 μM with RPMI 1640 complete medium and made 10-fold serially dilution (2 points). The diluted compounds (50 μL/well) were added to the indicated wells, and the plate was incubated at 37° C., 5% CO2, for 72 h.
LPS (0.1 μg/mL, 100 μL) was added into each well. Dex (1 μg/mL) was included as a positive control. Plate was incubated at 37° C., 5% CO2 for 72 h. Supernatant was collected to measure TNF-α by ELISA. Cell proliferation was detected by CTG.

U251, brain human glioma = experiment: CellTiter-Glo cell viability assay, cancer cell cytotoxicity/anti-proliferation panel (Chempartner); details: for IC50: Homo sapiens, U-251, 72 h, read-out: IC50 (absolute IC50); for Inhibition: U251, 72 hours, compounds 10 μM starting, STS 2 μM starting, 10-pt, 3-fold dilution

| SMILES | IC50 [1] [µM] | IC50 (A549 (lung carcinoma)) [µM] | CTG signal ([2]; compound 1 μM + 0.1 μg/mL LPS) | CTG signal ([2]; compound 10 μM + 0.1 μg/mL LPS) | IC50 (U251, brain human glioma) [µM] | Inhibition (U251, brain human glioma) [%] | effect on cell proliferation [2] |
| --- | --- | --- | --- | --- | --- | --- | --- |
| C=C(C)[C@@H]1CCC(C)=C[C@H]1c1c(O)cc(CCCCC)c(C(=O)NCCCN2CCOCC2)c1O [Ia28, (1′R,2′R)-2,6-dihydroxy-5′-methyl-N-(3-morpholinopropyl)-4-pentyl-2′-(prop-1-en-2-yl)-1′,2′,3′,4′-tetrahydro-[1,1′-biphenyl]-3-carboxamide] | 19 | 11 | 76.24 10^4 | 72.61 10^4 |  |  |  |
| CCCCCc1cc2c(c(O)c1C(=O)NCCCN1CCOCC1)[C@@H]1C=C(C)CC[C@H]1C(C)(C)O2 [Ia9, (6aR,0aR)-1-hydroxy-6,6,9-trimethyl-N-(3-morpholinopropyl)-3-pentyl-6a,7,8,10a-tetrahydro-6H-benzo[c]chromene-2-carboxamide] | 11.4 | 7.8 | 77.55 10^4 | 23.31 10^4 | 8.91 | 68.11 | inhibition of cell proliferation |
| CCCCCc1cc2c(c(O)c1C(=O)O)[C@@H]1C=C(C)CC[C@H]1C(C)(C)O2 [THCA, tetrahydrocannabinolic acid, reference compound] |  |  | 74.89 10^4 | 75.54 10^4 | > 10 | 17.22 |  |
| CCCCCc1cc2c(c(O)c1C(=O)NCCN(C)C)[C@@H]1C=C(C)CC[C@H]1C(C)(C)O2 [Ia6, (6aR,0aR)—N-(2-(dimethylamino)ethyl)-1-hydroxy-6,6,9-trimethyl-3-pentyl-6a,7,8,10a-tetrahydro-6H-benzo[c]chromene-2-carboxamide] | 9.4 | 5.2 | 80.67 10^4 | 37.67 10^4 | 7.23 | 70.02 | inhibition of cell proliferation |
